Assay results taken from PubChem BioAssay AID463251 (The Scripps Research Institute Molecular Screening Center, 2010).
Active and inactive are the calls of the source. Cut-off not given; nearly all actives show IC50 up to about 7.3 µM.

Molecular target: Neuropeptides B/W receptor type 1 (Homo sapiens) (UniProt P48145)
Experiment: GPR7 antagonist potency, late-stage follow-up, cell-based, fluorescence, dose response (AID 463251)
Conditions: GPR7-expressing cells, fluorescence read-out, antagonist mode

Neuropeptides B/W receptor type 1 (Homo sapiens), sequence (P48145 whole entry, looked up): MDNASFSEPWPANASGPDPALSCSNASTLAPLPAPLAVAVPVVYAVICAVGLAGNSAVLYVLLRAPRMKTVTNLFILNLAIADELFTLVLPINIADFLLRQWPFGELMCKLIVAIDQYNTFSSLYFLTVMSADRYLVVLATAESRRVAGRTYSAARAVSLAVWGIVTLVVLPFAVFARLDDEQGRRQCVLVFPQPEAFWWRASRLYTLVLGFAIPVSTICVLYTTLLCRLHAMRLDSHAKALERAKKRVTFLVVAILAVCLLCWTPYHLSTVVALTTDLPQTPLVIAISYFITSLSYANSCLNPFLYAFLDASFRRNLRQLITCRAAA

How did the IC50 turn out when `COc1ccc(Oc2c(CO)cnn(-c3ccc(C(C)C)cc3)c2=O)cc1` was run?
Its IC50 is 5.6 µM.

Which IC50 does the source give for `COc1ccc(Oc2c(Cl)cnn(Cc3ccc(C)cc3)c2=O)cc1` here?
Its IC50 is 1.7 µM.

Which IC50 does the source give for `CCOc1ccc(Oc2c(Br)cnn(-c3ccc(C(C)C)cc3)c2=O)cc1` here?
The IC50 was 0.724 µM.

For `C=Cc1cnn(-c2ccc(C(C)C)cc2)c(=O)c1Oc1ccc(OC)cc1`, which IC50 is on record?
Its IC50 is 2.4 µM.

Which IC50 does the source give for `CCOC(=O)c1ccc(-n2ncc(Cl)c(Oc3ccc(OC)cc3)c2=O)cc1` here?
Its IC50 is 1.2 µM.

For `COc1ccc(Oc2c(Cl)cnn(-c3cccc(C)c3C)c2=O)cc1`, which IC50 is on record?
The IC50 was 1.3 µM.

How did the IC50 turn out when `COC(=O)c1cnn(-c2ccc(C(C)C)cc2)c(=O)c1Oc1ccc(OC)cc1` was run?
The IC50 was 2.7 µM.

`COc1ccc(Oc2c(C3CC3)cnn(-c3ccc(C)cc3)c2=O)cc1` was tested. Which IC50 did it give?
Its IC50 is 6.2 µM.

For `COc1ccc(Oc2c(C#N)cnn(-c3ccc(C(C)C)cc3)c2=O)cc1`, which IC50 is on record?
Its IC50 is 4.2 µM.

For `COc1ccc(Oc2c(C)cnn(-c3ccc(C(C)C)cc3)c2=O)cc1`, which IC50 is on record?
Its IC50 is 7.5 µM.

Which IC50 does the source give for `COc1ccc(Oc2c(Cl)cnn(-c3ccc(C)cc3)c2=O)cc1` here?
Its IC50 is 2.2 µM.

Which inhibition (at 20 µM (top of the series)) does the source give for `O=C(C1CCCCN1Cc1ccccc1)N1CCN(c2ccc([N+](=O)[O-])cc2)CC1` (configuration not stated) here?
Its inhibition is “inactive”.

How did the IC50 turn out when `COc1ccc(Oc2c(C=O)cnn(-c3ccc(C(C)C)cc3)c2=O)cc1` was run?
The IC50 was 6.2 µM.

Which IC50 does the source give for `COc1ccc(Oc2c(Cl)cnn(-c3cc(C)ccc3C)c2=O)cc1` here?
The IC50 was 1.4 µM.

With `CC(C)c1ccc(-n2ncc(Cl)c(Oc3ccc(OC(F)(F)F)cc3)c2=O)cc1` as the molecule, how does the IC50 read?
Its IC50 is “inactive”.

For `Cc1ccc(-n2ncc(Cl)c(Oc3ccc(CO)cc3)c2=O)cc1`, which IC50 is on record?
Its IC50 is 2.3 µM.
